Laboratory results reported in US6890537B2, “Antimicrobial theta defensins and methods of using same” (The Regents of the University of California, priority 1999, dated 2005).
Positions of bridges follow the written chain, without caps; N, C: chain ends. Residues, ends and D or L forms follow the SMILES beside them.

Tests used:
[1] = system: Staphylococcus aureus 502a; test: Microbicidal suspension assay (colony counts); type: cell-based
Experimental: S. aureus 502a was incubated with increasing concentrations of natural or synthetic theta defensin peptide. Killing was quantified by colony counts.
Killing was quantified by colony counts. […] The limit of detection (1 colony per plate) was equal to 1×10^3 colony forming units in the incubation mixture.
Killing activity was quantified by colony counts after 18 hrs.
Killing was quantified by colony counts.
(§1) Additional antimicrobial assays were conducted on other microbial organisms. […] In FIG. 9A, S. aureus 502a was incubated with increasing concentrations of natural or synthetic peptide for 30 min at 37° C. in 10 mM PIPES, pH 7.4, containing 5 mM glucose. Killing was quantified by colony counts. […] The limit of detection (1 colony per plate) was equal to 1×10^3 colony forming units in the incubation mixture.
It has been proposed that salt sensitivity of airway defensins underlies the susceptibility of cystic fibrosis patients to pulmonary infections.
(§2) An acyclic version of theta defensin was also tested for antimicrobial activity. […] Killing activity was quantified by colony counts after 18 hrs.

C. albicans = test: Microbicidal suspension assay (colony counts); type: cell-based, Candida albicans; conditions: 2 hr, 37° C., 10 mM PIPES, pH 7.4, 5 mM glucose; FIG. 9D
Experimental: (§3) Killing was quantified by colony counts. Panels B-D show incubation of the indicated organisms with RTD-1 peptide: Listeria monocytogenes and Staphylococcus aureus (Panel B); Salmonella typhimurium and Escherichia coli (Panel C); and Cryptococcus neoformans and Candida albicans (Panel D). The limit of detection (1 colony per plate) was equal to 1×10^3 colony forming units in the incubation mixture.
as §1

E. coli ML 35 = test: Microbicidal suspension assay (colony counts); type: cell-based, Escherichia coli
Experimental: as §3, §1, §2

C. neoformans = test: Microbicidal suspension assay (colony counts); type: cell-based, Cryptococcus neoformans; conditions: 2 hr, 37° C., 10 mM PIPES, pH 7.4, 5 mM glucose; FIG. 9D
Experimental: as §3, §1

[2] = system: Cryptococcus neoformans 271A; test: Agar diffusion assay; type: cell-based; conditions: 10, 30, 100 or 300 μg/ml; agar seeded with 1×10^6 colony forming units; FIG. 7
Text: (§4) Agar diffusion assays and microbicidal suspension assays were used to examine the activity of theta defensin against Staphylococcus aureus 502A, Escherichia coli ML35, Listeria monocytogenes, and Cryptococcus neoformans.

[3] = system: Listeria monocytogenes EGD; test: Agar diffusion assay; type: cell-based; conditions: 10, 30, 100 or 300 μg/ml; agar seeded with 1×10^6 colony forming units; FIG. 7
Text: as §4

S. typhimurium = test: Microbicidal suspension assay (colony counts); type: cell-based, Salmonella typhimurium; conditions: 2 hr, 37° C., 10 mM PIPES, pH 7.4, 5 mM glucose; FIG. 9C
Experimental: as §3, §1

L. monocytogenes = test: Microbicidal suspension assay (colony counts); type: cell-based, Listeria monocytogenes; conditions: 2 hr, 37° C., 10 mM PIPES, pH 7.4, 5 mM glucose; FIG. 9B
Experimental: as §3, §1

[4] = system: Staphylococcus aureus 502a; test: Agar diffusion assay; type: cell-based
Experimental: (§5) The purified chromatographic peaks were screened for antibacterial activity against Escherichia coli ML35 and Staphylococcus aureus 502a. Briefly, antibacterial activity was screened with an agar diffusion assay using lyophilized samples of HPLC fractions dissolved in 5 μl of 0.01% acetic acid as described by Lehrer et al., J. Immunol. Methods 137:167-173 (1991)).
as §4

Escherichia coli ML35 = test: Agar diffusion assay; type: cell-based
Experimental: as §5, §4

[5] = 10, 30, 100 or 300 μg/ml, agar seeded with 1×10^6 colony forming units, FIG. 7
[6] = lyophilized HPLC fractions in 5 μl of 0.01% acetic acid, compared with other isolated leukocyte peptides

In the case of `CC[C@H](C)[C@@H]1NC(=O)[C@@H]2CSSC[C@H](NC(=O)[C@H](CCCNC(=N)N)NC(=O)[C@@H]3CSSC[C@H](NC1=O)C(=O)N[C@@H]([C@@H](C)O)C(=O)N[C@@H](CCCNC(=N)N)C(=O)NCC(=O)N[C@@H](Cc1ccccc1)C(=O)N3)C(=O)N[C@@H](CC(C)C)C(=O)N[C@H]1CSSC[C@H](NC(=O)[C@H](C(C)C)NC(=O)CNC(=O)[C@H](CCCNC(=N)N)NC(=O)[C@H](CCCNC(=N)N)NC1=O)C(=O)N[C@@H](CCCNC(=N)N)C(=O)N2` [RTD-1] (cyclo(GFCRCLCRRGVCRCICTR); disulfide 3-16, 5-14, 7-12), the “effect of NaCl on staphylocidal activity” value ([1]; 10 μg/ml peptide, 2 h incubation, NaCl concentrations as high as 150 mM, FIG. 9E) is reported as “little effect”, the microbicidal activity ([1]; 37° C., 10 mM PIPES, pH 7.4, 5 mM glucose, FIG. 9) is reported as “killed” and the “peptide concentration reducing colony counts to below the level of detection” value ([1]; 2 h at 37° C. in 10 mM PIPES, pH 7.4, FIG. 8) is reported as ≥ 4 µg/mL. The “activity of cyclic form relative to acyclic form” value ([1]; gram positive bacteria (Staphylococcus)) was “about three times more active”, the microbicidal activity (C. albicans) was “killed” and the microbicidal activity (E. coli ML 35; 2 hr, 37° C., 10 mM PIPES, pH 7.4, 5 mM glucose, FIG. 9C) was “killed”. For the same molecule, the “activity of cyclic form relative to acyclic form” value (E. coli ML 35; gram negative bacteria (E. coli)) was “about three times more active”, the microbicidal activity (C. neoformans) was “killed” and the zone of inhibition [2] was “dose dependent increase in the zone of inhibition”. For the same molecule, the zone of inhibition [3] was “dose dependent increase in the zone of inhibition”, the microbicidal activity (S. typhimurium) was “killed” and the microbicidal activity (L. monocytogenes) was “killed”. For the same molecule, the zone of inhibition [4, 5] was “dose dependent increase in the zone of inhibition”, the “antibacterial activity (screen of purified chromatographic peaks)” value [4, 6] was “greatest activity of any of the peptides isolated” and the zone of inhibition (Escherichia coli ML35; [5]) was “dose dependent increase in the zone of inhibition”. The “antibacterial activity (screen of purified chromatographic peaks)” value (Escherichia coli ML35; [6]) was “greatest activity of any of the peptides isolated”.
